Patent US10280159B2 (AbbVie Deutschland GmbH & Co. KG, priority 2015, dated 2019)
pEC50: −log10 of the molar value.

Columns and labels:
Type in all cases: cell-based
human S1PR5 = target: T1, human S1PR5 (Homo sapiens, UniProt Q9H228); assay: Intracellular Ca2+ release (FLIPR) agonist potency, S1P5; details: recombinant CHO-K1 cells expressing human S1PR5, aequorin, Gq/i5; Calcium 5 FLIPR; read-out: S1P5 EC50 range
T1 construct: host or cells: CHO-K1
Procedure: (§1) Agonistic activity was measured using the method described below.
(§2) Intracellular Ca^2+ Release
(§3) Agonist potency and intrinsic activity was assessed by measurement of intracellular Ca^2+ release. Recombinant CHO-K1 cells (Euroscreen, Brussels, Belgium) expressing human S1PR5, S1PR1, S1PR3 or S1PR4 receptors, aequorin, and GTP binding protein Gq/i5 were cultured using a medium containing nutrient mixture F-12 Ham (Sigma-Aldrich) with 10% FBS, and 100 μg/mL gentamicin and equilibrated at 5% CO2.
(§4) Phospho-fingolimod was used as positive control. Antagonists were pre-incubated for 10 min with cells before addition of the agonist (phospho-fingolimod at EC80). Measurements were performed using a fluorometric imaging plate reader FLIPR®tetra (Molecular Devices). Agonist at the human S1P receptors were characterized by deducing EC50 (potency) values from a nonlinear fit to the measured fluorescence raw data after normalization to the reference agonist (phospho-fingolimod) curve.

human S1PR1 = target: T2, human S1PR1 (Homo sapiens, UniProt P21453); assay: Intracellular Ca2+ release (FLIPR) agonist potency, S1P1; details: recombinant CHO-K1 cells expressing human S1PR1, aequorin, Gq/i5; Calcium 5 FLIPR; read-out: S1P1 EC50
T2 construct: host or cells: CHO-K1
T2 sequence (P21453 whole entry): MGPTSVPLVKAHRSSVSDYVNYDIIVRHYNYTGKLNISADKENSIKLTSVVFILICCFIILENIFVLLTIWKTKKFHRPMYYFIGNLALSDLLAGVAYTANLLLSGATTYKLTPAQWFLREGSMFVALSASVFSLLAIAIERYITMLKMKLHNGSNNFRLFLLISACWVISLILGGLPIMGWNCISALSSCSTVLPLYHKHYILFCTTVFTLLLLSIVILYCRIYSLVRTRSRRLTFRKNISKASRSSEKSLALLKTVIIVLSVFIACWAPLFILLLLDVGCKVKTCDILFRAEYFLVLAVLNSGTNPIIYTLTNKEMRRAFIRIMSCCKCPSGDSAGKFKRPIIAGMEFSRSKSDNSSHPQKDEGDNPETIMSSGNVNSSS
Procedure: as §1, §2, §3, §4

human S1PR4 = target: T3, human S1PR4 (Homo sapiens, UniProt O95977); assay: Intracellular Ca2+ release (FLIPR) agonist potency, S1P4; details: recombinant CHO-K1 cells expressing human S1PR4, aequorin, Gq/i5; Calcium 5 FLIPR; read-out: S1P4 EC50
T3 construct: host or cells: CHO-K1
T3 sequence (O95977 1-384): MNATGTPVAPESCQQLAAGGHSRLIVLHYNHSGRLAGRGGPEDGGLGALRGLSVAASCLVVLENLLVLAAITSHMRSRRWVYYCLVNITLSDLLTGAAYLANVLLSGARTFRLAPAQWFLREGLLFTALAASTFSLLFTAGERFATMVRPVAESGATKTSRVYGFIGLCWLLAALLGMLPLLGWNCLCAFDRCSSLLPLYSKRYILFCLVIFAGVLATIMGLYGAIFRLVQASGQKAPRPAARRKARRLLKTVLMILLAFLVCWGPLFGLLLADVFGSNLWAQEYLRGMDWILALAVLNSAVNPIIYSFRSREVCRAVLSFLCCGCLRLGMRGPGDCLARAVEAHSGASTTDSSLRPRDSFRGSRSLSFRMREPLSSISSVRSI
Procedure: as §1, §2, §3, §4

T1 sequence (Q9H228 whole entry): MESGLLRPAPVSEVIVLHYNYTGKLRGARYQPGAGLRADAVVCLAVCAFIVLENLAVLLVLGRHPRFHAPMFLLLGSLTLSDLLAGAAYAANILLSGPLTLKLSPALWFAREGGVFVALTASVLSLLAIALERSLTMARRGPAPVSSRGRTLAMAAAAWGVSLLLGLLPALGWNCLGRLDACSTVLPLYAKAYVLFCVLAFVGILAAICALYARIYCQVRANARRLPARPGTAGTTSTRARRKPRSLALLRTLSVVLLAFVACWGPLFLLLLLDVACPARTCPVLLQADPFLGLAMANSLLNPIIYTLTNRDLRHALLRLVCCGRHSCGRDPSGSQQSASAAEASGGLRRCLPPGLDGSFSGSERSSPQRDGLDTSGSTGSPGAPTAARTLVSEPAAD

Compound	pEC50 (human S1PR5)	pEC50 (human S1PR1)	pEC50 (human S1PR4)
Cc1ccc(F)c(COc2ccc3c(c2)CCC(OCC(=O)O)C3)c1F (centres unmarked) [Compound 149, 2-[6-[(2,6-difluoro-3-methyl-phenyl)methoxy]tetralin-2-yl]oxyacetic acid]	5.00 to 6.00	< 6.00	< 6.00
O=C(O)COC1CCc2cc(OCc3ccc(F)cc3)ccc2C1 (centres unmarked) [Compound 214, 2-[6-[(4-fluorophenyl)methoxy]tetralin-2-yl]oxyacetic acid]	5.00 to 6.00	< 6.00	< 6.00
O=C(O)COC1CCc2cc(OCc3cc(Cl)ccc3C(F)(F)F)ccc2C1 (centres unmarked) [Compound 153, 2-[6-[[5-chloro-2-(trifluoromethyl)phenyl]methoxy]tetralin-2-yl]oxyacetic acid]	–	< 6.00	–
COc1ccc(Cl)cc1COc1ccc2c(c1)CCC(OCC(=O)O)C2 (centres unmarked) [Compound 176, 2-[6-[(5-chloro-2-methoxy-phenyl)methoxy]tetralin-2-yl]oxyacetic acid]	5.00 to 6.00	< 6.00	< 6.00
O=C(O)CCOC1CCc2cc(OCc3cccc(OC(F)(F)F)c3)ccc2C1 (centres unmarked) [Compound 184, 3-[6-[[3-(trifluoromethoxy)phenyl]methoxy]tetralin-2-yl]oxypropanoic acid]	5.00 to 6.00	< 6.00	< 6.00
O=C(O)C1CN(C2COc3cc(OCc4ccc(F)c(C(F)(F)F)c4)ccc3C2)C1 (centres unmarked) [Compound 85, 1-[7-[[4-fluoro-3-(trifluoromethyl)phenyl]methoxy]chroman-3-yl]azetidine-3-carboxylic acid]	5.00 to 6.00	< 6.00	< 6.00
Cc1ccccc1COc1ccc2c(c1)CCC(OCC(=O)O)C2 (centres unmarked) [Compound 197, 2-[6-(o-tolylmethoxy)tetralin-2-yl]oxyacetic acid]	–	< 6.00	> 6.00
COc1ccc(F)cc1COc1ccc2c(c1)CCC(OCC(=O)O)C2 (centres unmarked) [Compound 166, 2-[6-[(5-fluoro-2-methoxy-phenyl)methoxy]tetralin-2-yl]oxyacetic acid]	6.00 to 7.00	< 6.00	< 6.00
O=C(O)C1CN(C2COc3cc(OCc4c(F)cccc4Cl)ccc3C2)C1 (centres unmarked) [Compound 61, 1-(7-((2-chloro-6-fluorobenzyl)oxy)chroman-3-yl)azetidine-3-carboxylic acid]	6.00 to 7.00	< 6.00	< 6.00
CCc1cccc(Cl)c1COc1ccc2c(c1)OCC(NC1(C(=O)O)CCC1)C2 (centres unmarked) [Compound 120, 1-((7-((2-chloro-6-ethylbenzyl)oxy)chroman-3-yl)amino)cyclobutane-1-carboxylic acid]	7.00 to 8.00	> 6.00	> 6.00
O=C(O)COC1CCc2cc(OCc3cc(C(F)(F)F)ccc3Cl)ccc2C1 (centres unmarked) [Compound 151, 2-[6-[[2-chloro-5-(trifluoromethyl)phenyl]methoxy]tetralin-2-yl]oxyacetic acid]	5.00 to 6.00	< 6.00	< 6.00
CCc1cccc(F)c1COc1ccc2c(c1)OCC(NCC(=O)O)C2 (centres unmarked) [Compound 126, (7-((2-ethyl-6-fluorobenzyl)oxy)chroman-3-yl)glycine]	> 8.00	< 6.00	> 6.00
O=C(O)COC1CCc2cc(OCc3ccc(F)c(F)c3)ccc2C1 (centres unmarked) [Compound 212, 2-[6-[(3,4-difluorophenyl)methoxy]tetralin-2-yl]oxyacetic acid]	5.00 to 6.00	< 6.00	< 6.00
CCc1cccc(F)c1COc1ccc2c(c1)OCC(N1CC(C(=O)O)C1)C2 (single isomer, unassigned) [Compound 146, 1-(7-((2-ethyl-6-fluorobenzyl)oxy)chroman-3-yl)azetidine-3-carboxylic acid]	> 8.00	< 6.00	> 6.00
O=C(O)COC1CCc2cc(OCc3ccc(Cl)c(Cl)c3)ccc2C1 (centres unmarked) [Compound 199, 2-[6-[(3,4-dichlorophenyl)methoxy]tetralin-2-yl]oxyacetic acid]	5.00 to 6.00	< 6.00	< 6.00
COc1cccc(COc2ccc3c(c2)OCC(N2CC(C(=O)O)C2)C3)c1F (centres unmarked) [Compound 86, 1-[7-[(2-fluoro-3-methoxy-phenyl)methoxy]chroman-3-yl]azetidine-3-carboxylic acid]	5.00 to 6.00	< 6.00	< 6.00

Compound	pEC50 (human S1PR5)	pEC50 (human S1PR1)	pEC50 (human S1PR4)
CCCC1(C(=O)O)CN([C@@H]2COc3cc(OCc4c(Cl)cccc4Cl)ccc3C2)C1 [Compound 141, (S)-1-(7-((2,6-dichlorobenzyl)oxy)chroman-3-yl)-3-propylazetidine-3-carboxylic acid]	5.00 to 6.00	< 6.00	< 6.00
O=C(O)C1CN(C2COc3cc(C#CC4CCCCC4)ccc3C2)C1 (centres unmarked) [Compound 39, 1-(7-(cyclohexylethynyl)chroman-3-yl)azetidine-3-carboxylic acid]	6.00 to 7.00	< 6.00	< 6.00
O=C(O)COC1CCc2cc(OCc3c(F)cccc3C(F)(F)F)ccc2C1 (centres unmarked) [Compound 158, 2-[6-[[2-fluoro-6-(trifluoromethyl)phenyl]methoxy]tetralin-2-yl]oxyacetic acid]	5.00 to 6.00	< 6.00	< 6.00
O=C(O)CNC1COc2cc(OCc3ccc(OCc4cccc(Cl)c4)cc3)ccc2C1 (centres unmarked) [Compound 132, (7-((4-((3-chlorobenzyl)oxy)benzyl)oxy)chroman-3-yl)glycine]	> 8.00	< 6.00	< 6.00
CC(C)C(NC1CCc2cc(OCc3c(Cl)cccc3Cl)ccc2C1)C(=O)O (centres unmarked) [Compound 37, 2-((6-((2,6-dichlorobenzyl)oxy)-1,2,3,4-tetrahydronaphthalen-2-yl)amino)-3-methylbutanoic acid]	6.00 to 7.00	< 6.00	< 6.00
CCc1cccc(F)c1COc1ccc2c(c1)OCC(NC1(CC(=O)O)CCC1)C2 (centres unmarked) [Compound 118, 2-(1-((7-((2-ethyl-6-fluorobenzyl)oxy)chroman-3-yl)amino)cyclobutyl)acetic acid]	> 8.00	< 6.00	> 6.00
CCc1cccc(Cl)c1COc1ccc2c(c1)OCC(N1CCC(C(=O)O)C1)C2 (centres unmarked) [Compound 128, 1-(7-((2-chloro-6-ethylbenzyl)oxy)chroman-3-yl)pyrrolidine-3-carboxylic acid]	> 8.00	< 6.00	> 6.00
O=C(O)C1CN(C2COc3cc(OCc4cc(OC(F)(F)F)ccc4F)ccc3C2)C1 (centres unmarked) [Compound 104, 1-[7-[[2-fluoro-5-(trifluoromethoxy)phenyl]methoxy]chroman-3-yl]azetidine-3-carboxylic acid]	6.00 to 7.00	< 6.00	< 6.00
O=C(O)C1CN(C2COc3cc(OCc4c(F)cccc4F)ccc3C2)C1 (centres unmarked) [Compound 60, 1-(7-((2,6-difluorobenzyl)oxy)chroman-3-yl)azetidine-3-carboxylic acid]	–	< 6.00	< 6.00
COc1ccccc1COc1ccc2c(c1)CCC(OCC(=O)O)C2 (centres unmarked) [Compound 170, 2-[6-[(2-methoxyphenyl)methoxy]tetralin-2-yl]oxyacetic acid]	5.00 to 6.00	< 6.00	< 6.00
O=C(O)CCOC1CCc2cc(OCc3cccc(C(F)(F)F)c3)ccc2C1 (centres unmarked) [Compound 193, 3-[6-[[3-(trifluoromethyl)phenyl]methoxy]tetralin-2-yl]oxypropanoic acid]	–	< 6.00	> 6.00
O=C(O)C1CN(C2COc3cc(OCc4cccc(F)c4F)ccc3C2)C1 (centres unmarked) [Compound 51, 1-(7-((2,3-difluorobenzyl)oxy)chroman-3-yl)azetidine-3-carboxylic acid]	–	< 6.00	< 6.00
O=C(O)COC1CCc2cc(OCc3ccccc3F)ccc2C1 (centres unmarked) [Compound 215, 2-[6-[(2-fluorophenyl)methoxy]tetralin-2-yl]oxyacetic acid]	5.00 to 6.00	< 6.00	–
O=C(O)COC1CCc2cc(OCc3ccc(C(F)(F)F)cc3)ccc2C1 (centres unmarked) [Compound 202, 2-[6-[[4-(trifluoromethyl)phenyl]methoxy]tetralin-2-yl]oxyacetic acid]	–	< 6.00	< 6.00
O=C(O)CCOC1CCc2cc(OCc3cccc(Cl)c3)ccc2C1 (centres unmarked) [Compound 187, 3-[6-[(3-chlorophenyl)methoxy]tetralin-2-yl]oxypropanoic acid]	–	< 6.00	< 6.00
O=C(O)CCOC1CCc2cc(OCc3ccccc3C(F)(F)F)ccc2C1 (centres unmarked) [Compound 178, 3-[6-[[2-(trifluoromethyl)phenyl]methoxy]tetralin-2-yl]oxypropanoic acid]	5.00 to 6.00	< 6.00	–
